# Test results from patent US20240109914A1, “IMIDAZOTHIAZOLE COMPOUNDS AND ANALOGS THEREOF AND METHODS FOR TREATING NEMATODE INFECTIONS IN PLANTS” (The Governing Council of The University of Toronto, priority 2021, published 2024).
# Where two headings read alike, the source gives them in different places.
# What was measured:
# C. elegans = C. elegans dose-response (viability, minimum lethal concentration); type: in vivo, Caenorhabditis elegans; conditions: Caenorhabditis elegans, 72 h, L1 worms, 3 days at 20° C.
# Experimental: Forty microliters of an HB101 E. coli bacterial suspension in liquid NGM (nematode growth media—see ref. 42 for the recipe) was added to each well of a 96-well flat-bottom culture plate, after which approximately 25 synchronized L1 worms, in 10 μl of M9 buffer (see ref. 43 for the recipe), were added to each well. The synchronized L1 worms were obtained from an embryo preparation performed the previous day (see ref. 43 for the protocol). For the L1 assays, 0.5 μl of test compound solution (or DMSO alone) was immediately added to the wells using a multichannel pipette; the final DMSO concentration is 1% (v/v). The worms were incubated for 3 days at 20° C. and the number of viable animals was counted.
# At least three biological replicates were performed for each dose-response assay. For each biological replicate, two technical replicates were performed and the numbers of viable animals for each technical replicate were combined (i.e. ˜ 50 worms assayed per concentration). The number of viable worms at each concentration was divided by the corresponding DMSO control value to give the “relative viability” for each concentration. The “relative viability” values were then averaged across the biological replicates. Minimum lethal concentration was defined as the lowest concentration at which at least 20% of worms die.
# M. hapla eggs = test: Meloidogyne hapla in vitro egg hatch assay; type: in vivo; conditions: 45 μM; for Number of Hatched Eggs: 8 days at room temperature, about 90 eggs per well, tested once; for Number of Hatched Eggs z-score: 8 days, z-score vs 8 untreated DMSO wells
# Experimental: The M. hapla were originally obtained from a soil sample of muck soil from Ste-Clotilde, Quebec, Canada. Using tweezers, egg masses were carefully removed from root material from infested carrot roots. Eggs were liberated from the egg masses using a mild sodium hypochlorite bleaching protocol, whereby egg masses were bleached with a 10% commercial bleach (sodium hypochlorite) solution for 4 minutes with vigorous shaking, and then washed 5 times with deionized water. 50 μL of deionized water was added to each well of two 96-well polystyrene culture plates, and 0.5 μL of chemical (or DMSO alone) was added to each well. Approximately 90 eggs were added to each well in 49.5 ul of deionized water. The plates were sealed with parafilm and incubated for 8 days at room temperature without shaking in a Tupperware box filled with wet paper towels. After the 8-day incubation, the number of hatched eggs was counted for each treatment and for the untreated controls. Each chemical treatment was tested only once. 8 separate untreated DMSO controls were included in the experiment. The z-score for each treatment was calculated using the mean and standard deviation of the untreated DMSO control wells.
# M. incognita = test: Meloidogyne incognita infectivity assay (soil, tomato roots); type: in vivo; conditions: Meloidogyne incognita, 1344 h, 45 μM in soil, 8 weeks, eggs per mg root relative to DMSO control, read-out: % effectiveness at inhibiting reproduction of M. incognita
# Text: An M. incognita population originally collected from grape (Vitis vinifera) in Parlier, California, was used for all experiments, and they were maintained on tomato plants (Solanum lycopersicum ‘Rutgers’) as previously described^47. Infective J2 juveniles were collected as described in ref. 47.
# tomato plants = test: Root mass of tomato plants in the soil infectivity assay; conditions: 45 μM in soil, 8 weeks
# Experimental: For the infectivity assays, 90 grams of soil (1:1 sand:loam mix) was added to each cell of several 6-cell plastic garden packs. The soil was drenched with 18 mL of deionized water containing dissolved test compound or DMSO alone. 2,500 infective J2 juveniles were then added to the soil in 2 mL of deionized water, for a total water volume of 20 mL. […] The DMSO concentration varied from 0.1% to 0.8% (v/v) depending on the stock concentration of the test compound. The highest DMSO concentration was used as the DMSO control. The J2s were incubated in the soil and chemical for 24 hours, after which two- to three-week old tomato seedlings were transplanted into the soil (one plant per cell). Two replicates were performed for each chemical treatment, and four replicates were done for the DMSO controls. The whole experiment was replicated twice, in two different batches on two different days, for a total of four replicates for each test compound treatment, and eight replicates for the DMSO controls. Inoculated plants were grown for 8 weeks in a greenhouse, as described^47, under long-day conditions (16-h photoperiod) with 26/18° C. day/night temperatures. After 8 weeks, the plants were destructively harvested. The tops were removed and discarded, and roots were gently washed with water to remove adhering soil. Eggs were extracted by placing rinsed roots in 0.6% sodium hypochlorite and agitating at 300 rpm for 3 min. Roots were then rinsed over nested 250—and 25.4-μm sieves, with eggs collected from the latter and suspended in water. Roots were dried in a 65° C. oven for at least 24 hours, after which dry roots were weighed. The number of eggs from each plant root was counted on a dissection microscope using a haemocytometer, and the number of eggs per milligram of root was calculated by dividing the total egg number by the mass of the dried root material. An average was taken across the replicates performed on the same day, and then normalized to the DMSO control average. […] An average percent effectiveness value was then calculated across the two different batches carried out on different days.
# M. incognita J2 larvae = test: Meloidogyne incognita in vitro larval mobility assay; type: in vivo; conditions: 45 μM, 4 days; for Replicate 1 z-score / Replicate 2 z-score: z-score vs untreated DMSO wells; for pest or weed control at 45 µM: Meloidogyne incognita, 96 h
# Experimental: M. incognita (Kofoid & White) Chitwood Race 1 (originally isolated in Maryland) was used for all experiments, and was maintained on pepper (Capsicum annuum L.) cv. PA-136 in a greenhouse as previously described^44. Infective J2 juveniles were collected as described in ref. 45. The microwell dose-response experiments were carried out similarly to previously described protocols^44,46. In brief, 50 μL of deionized water was added to the wells of 96-well polystyrene plates and 0.5 μL of test compound (or DMSO alone) was added to each well. Approximately 35 J2s were then added to each well in 49.5 μL of deionized water. The chemicals were tested at 45 μM, and the final concentration of DMSO in each well was 0.5% (v/v). DMSO alone was added to 3 separate wells. The plates were covered with plastic adhesive strips, and the lids of the plates were sealed with parafilm. The plates were incubated at 25° C. without shaking for 4 days. The percent of worms that were immobile (% immobile) was quantified by counting the number of immobile worms after 4 days of incubation, dividing the number of immobile worms by the total number of worms in the well, and then multiplying by 100. Two replicates were performed for each treatment. The z-score for each treatment was calculated using the mean and standard deviation of the untreated DMSO control wells. The average % immobile value was calculated across the two replicates. A test compound was considered most promising if the z-score was greater than 1.645 in both replicates.
# [1] = lowest concentration at which at least 20% of worms die, read-out: Minimum Lethal Concentration
# [2] = same values in ppm, read-out: Minimum Lethal Concentration (ppm)
# [3] = average of the two replicates, read-out: Average % Immobile
# [4] = replicate 1, read-out: Replicate 1 % Immobile
# [5] = replicate 2, read-out: Replicate 2 % Immobile
Compound,minimal effective concentration (C. elegans; [1]) [µM],minimal effective concentration (C. elegans; [2]) [µg/mL],Number of Hatched Eggs (M. hapla eggs),Number of Hatched Eggs z-score (M. hapla eggs),pest or weed control at 45 µM (M. incognita) [%],Normalized root mass (relative to DMSO control) (tomato plants),Replicate 1 z-score (M. incognita J2 larvae; replicate 1),Replicate 2 z-score (M. incognita J2 larvae; replicate 2),pest or weed control at 45 µM (M. incognita J2 larvae; [3]) [%],pest or weed control at 45 µM (M. incognita J2 larvae; [4]) [%],pest or weed control at 45 µM (M. incognita J2 larvae; [5]) [%]
Ic1ccccc1-c1cn2ccsc2n1 [I-43],50,16.3,4,[3.31],,,,,,,
Cc1csc2nc(-c3cccc(F)c3)cn12 [I-16],> 100,> 23.2,,,0,1.15,,,,,
Cc1c(-c2ccccc2F)nc2sccn12 [I-19],> 100,> 23.2,,,16.6,1.27,,,,,
Cc1c(-c2ccccc2Cl)nc2sccn12 [I-28],> 100,> 24.9,,,17.4,1.37,,,,,
Cc1cn2cc(-c3cccc(Cl)c3)nc2s1 [I-26],25,6.2,,,0,1.43,[6.47],[1.92],37.4,54.4,20.4
Brc1ccccc1-c1cn2ccsc2n1 [I-38],100,27.9,,,0,1.21,,,,,
Cc1cn2cc(-c3ccccc3Cl)nc2s1 [I-30],> 100,> 24.9,,,16,1.30,[8.34],[5.62],52.1,63.5,40.8
Cc1cn2cc(-c3ccccc3Br)nc2s1 [I-41],> 100,> 29.3,,,6.6,1.18,[3.31],[6.62],42.6,38.9,46.3
Cc1c(-c2cccc(Cl)c2)nc2sccn12 [I-24],100,24.9,,,23.6,1.34,[1.68],[4.78],33.6,30.9,36.2
Cc1cn2cc(-c3cccc(Br)c3)nc2s1 [I-37],> 100,> 29.3,,,21.6,1.31,,,,,
Clc1ccc(-c2cn3ccsc3n2)c(Cl)c1 [I-32],6.25,1.7,,,4.4,1.31,,,,,
Cc1c(-c2cccc(F)c2)nc2sccn12 [I-15],> 100,> 23.2,,,5.8,1.35,,,,,
Cc1cn2cc(-c3ccccc3F)nc2s1 [I-21],50,11.6,,,24.4,1.24,[5.78],[5.62],45.9,51,40.8
Brc1cccc(-c2cn3ccsc3n2)c1 [I-34],50,14,1,[4.30],,,[15.00],[14.11],≥ 75,96.1,87.8
CCc1cccc(-c2cn3ccsc3n2)c1 [I-11],100,22.8,3,[3.64],,,,,,,
Cc1ccc(-c2cn3c(C)csc3n2)cc1 [I-4],100,22.8,4,[3.31],,,,,,,
Fc1ccccc1-c1cn2ccsc2n1 [I-18],,,,,0,1.13,,,,,
Cc1ccc(-c2cn3ccsc3n2)cc1C [I-6],> 100,> 22.8,,,,,[4.25],[3.22],35.5,43.5,27.6
Clc1cccc(-c2cn3ccsc3n2)c1 [I-23],100,23.5,1,[4.30],,,[14.66],[13.61],≥ 75,94.4,85
CCc1ccc(-c2cn3c(C)csc3n2)cc1 [I-9],100,24.2,2,[3.97],,,,,,,
